This note sets out measurements from US12129487B2, “Method to obtain lymphoid progenitors” (INSERM (Institute National de la Santé et de la Recherche …, priority 2017, dated 2024).

One assay deals with LSK SLAM (HSCs) or MPPs. Put plainly: In vitro differentiation assay of purified LSK SLAM or MPPs in cytokine-supplemented feeder-free media. In kind it is cell-based, mouse.
In the next assay the test system is MPPs. Put plainly: Impact of CXCL12 concentrations on lymphoid commitment of purified MPPs in vitro. In kind it is cell-based, mouse. The settings on record: WT MPPs, CXCL12 1 to 1,000 ng/ml at start, day 4 (FIG. 3). The protocol: Purified MPPs were seeded at 450 cells into a 96-well tissue culture plate in DMEM medium supplemented with 10% FBS, 1% penicillin, and the following cytokines: mouse SCF (50 ng/mL), mouse IL-3 (10 ng/mL), human IL-6 (10 ng/mL), mouse IL-7 (5 ng/mL), and human Flt3 (5 ng/mL). Different concentrations of CXCL12 ranging from 1 to 1,000 ng/ml were added at the start of the culture. Cells were cultured at 37° C. in a humidified atmosphere containing 5% CO2, and were harvested after 4 days of culture to analyze HSPCs by flow cytometry.

Source text for circulating HSPCs: One hour later, peripheral blood was harvested, analyzed by flow cytometry and tested for CFU-C assays.

As to `c1cc(CN2CCCNCCNCCCNCC2)ccc1CN1CCCNCCNCCCNCC1` [AMD3100], the “absolute numbers of circulating HSPCs” value in the assay on circulating HSPCs (WT mice, single intra-peritoneal injection (5 mg/kg), one hour after injection, blood) is listed as “significant increase”. Further, in the assay with circulating HSPCs (mutant (Cxcr4 1013-bearing) mice, single intra-peritoneal injection, one hour, reaching that of untreated WT mice), the “absolute numbers of HSPCs in the blood” value is “increased”.

For “CXCL12: C-X-C motif chemokine 12, natural ligand of CXCR4, added to the culture medium”, the “appearance of LMPPs” value with LSK SLAM (HSCs) or MPPs (100 ng/mL added at start of culture of MPPs, regardless of Cxcr4 genotype, less pronounced among mutant cells) is given as “promoted the appearance of LMPPs”. In the assay on LSK SLAM (HSCs) or MPPs (100 ng/mL added at start of culture, mutant cells, days 2 and 4 (FIGS. 1 and 2)), the “proportions and numbers of Cxcr4 1013-bearing MPPs” value is “further enhanced”. In the assay with MPPs, the “myeloid-biased MPP2 proportions and numbers” value is on record as “decrease”; the “myeloid-biased MPP3 proportions and numbers” value is recorded as “decrease”; the “proportions and absolute numbers of MPPs” value was “significant and dose-dependent increase”; the “proportions and absolute numbers of lymphoid-biased MPP4” value was “significant and dose-dependent increase”.
